Laboratory results published in US20060014704A1, “Compounds and their preparation for the treatment of Alzheimer's disease by inhibiting beta-amyloid peptide production” (priority 2004, published 2006).
Entries after “also recorded” stand apart in the source; their conditions may differ. Where two headings read alike, the source gives them in different places.

Legend:
[1] = system: Aβ40 and Aβ42 production, CHO cells stably transfected with human APP695; experiment: Secreted Aβ40/Aβ42 ELISA in CHO cells expressing human APP (CHO-APP cells); type: cell-based, Chinese hamster; parameters: key to Aβ42-lowering activity: Aβ42-lowering activity (“Yes”); no profound effects (“No”); non-determined (“ND”); Ginsenosides that affected cell viability are indicated as “Cytotoxic.”; conditions: for preference for Aβ42 vs. Aβ40 in cell-based assay: FIG. 6 / FIG. 12B; for production of Aβ42 in cells: general statement; for Aβ42-lowering activity: summary of Tables 1-3
Protocol: The CHO cells were treated with the indicated compounds (at 50 μg/ml) for 8 hrs. Aβ42 levels in the medium were measured by ELISA and normalized to intracellular full-length APP.
The potential effects of ginsenosides and their analogues in treating AD were examined. First, a number of ginsenosides were screened based on their effects on Aβ generation. The effects of various ginsenosides on Aβ (e.g., Aβ40 and Aβ42) production was initially accessed by incubating the Chinese hamster ovary (CHO) cells expressing human APP(CHO-APP cells) with each ginsenoside purified from unprocessed ginseng (known as “white ginseng”). These representative ginsenosides included Rb1, Rb2, Rc, Rd, Re, Re, Rg1 and Rg2 and differ in their side chains and sugar moieties.
After 8 hours of incubation, the media were collected and the levels of secreted Aβ40 and Aβ42 were determined by ELISA.

[2] = system: Aβ40 and Aβ42 production, CHO-APP/PS1 cells; experiment: Secreted Aβ ELISA in CHO-APP/PS1 cells (wild-type PS1); type: cell-based, Chinese hamster; conditions: for potency of Aβ42-reducing activity (rank) / secretion of Aβ42: 50 μM, 8 hrs, FIG. 11; for secretion of Aβ42: heat-processing derived ginsenosides
Protocol: (§1) The effects of Rg5 on the Aβ42 generation were much smaller as compared to Rgk351 and Rk1.
(§2) FIG. 10 depicts the effects of native ginsenosides on Aβ42 production. CHO cells stably transfected with human APP695 together with either wild-type (A, CHO-APP/PS1 cells) or ΔE9 FAD mutant (B, CHO-APP/ΔE9PS1 cells) forms of PS1 were used. Cells were treated with the indicated compounds (at 50 μM) for 8 hrs. Levels of secreted Aβ40 and Aβ42 in the medium were determined by ELISA and normalized to intracellular full-length APP. In CHO-APP/PS1 cells, average Aβ amounts in control samples were 320 pM for Aβ40 and 79 pM for Aβ42. The relative levels of Aβ and Aβ42 were normalized to values obtained from non-treated and vehicle-treated cells and are shown as % to control+s.d.). One of three representative experiments are shown.
(§3) CHO-APP/PS1 (A) and CHO-APP/ΔE9PS1 (B) cells were treated with the indicated compounds at 50 μM for 8 hrs and the levels of secreted Aβ40 and Aβ42 were determined as described in FIG. 1. […] The PS1-ΔE9 FAD mutation diminished the Aβ42 response to Rk1 treatment (B).

[3] = system: Aβ42 production, CHO-APP/ΔE9PS1 cells; experiment: Secreted Aβ ELISA in CHO cells co-expressing human APP and FAD mutant PS1 (ΔE9, L286V); type: cell-based, Chinese hamster; conditions: 50 μM, 8 hrs, FIG. 11B vs 11A
Protocol: as §1, §2, §3

[4] = molecular target: γ-secretase (Homo sapiens, UniProt P49768); experiment: Cell-free γ-secretase assay (CHAPSO-solubilized membrane fractions, recombinant substrates, Aβ ELISA); type: biochemical
Protocol: (A) CHAPSO-solubilized membrane fractions were incubated with recombinant γ-secretase substrates together with the indicated compounds (at 100 μM) and the levels of Aβ42 and Aβ40 were determined by ELISA as described (27-29). (B) Dose-response of Aβ40 and Aβ42-lowering activity of Rk1 and (20S)Rg3 in a cell-free γ-secretase assay.
Next, the inhibitory effects of Rk1 and (20S)Rg3 on Aβ generation in an in vitro γ-secretase assay was studied. […] In contrast, naproxen, an NSAID without Aβ42-lowering activity, had no effects on Aβ42 production (FIG. 15A).

[5] = system: Aβ species, CHO-APP cells; experiment: Mass spectrometric analysis of Aβ species produced from CHO-APP cells; type: cell-based, Chinese hamster; conditions: mass spectrometry, vs DMSO
Protocol: Note that treatment leads to a decrease in Aβ42 species (1-42), and elevation in both Aβ37 (1-37) and Aβ38 (1-38). Mass spectrometric analysis of Aβ species were performed as previously described (Wang R, Sweeny D, Gandy S E, Sisodia S S. The profile of soluble amyloid β-protein in cultured cell media. J. Bio. Chem. 1996; 271: 31894-31902).

[6] = system: Aβ40 and Aβ42 secretion, primary embryonic cortical neurons; experiment: Aβ secretion in primary embryonic cortical neurons derived from Tg2576 transgenic mice; type: cell-based, mouse
From the text: Treatment of Rk1 and Rg3 decreased the level of secreted Aβ40 and Aβ42.

[7] = system: Aβ42 production in mammalian cells; conditions: Tae-Wan Kim et al., patent application pending; cited from earlier work
[8] = system: cell viability; experiment: Cell viability of treated cells; type: cell-based; parameters: key to affected cell viability (Cytotoxic): Aβ42-lowering activity (“Yes”); no profound effects (“No”); non-determined (“ND”); Ginsenosides that affected cell viability are indicated as “Cytotoxic.”
Protocol: as §3
Tables 1-3 Structure of ginsenosides utilized in the study and their effects on Aβ42 generation. They differ at the two or three side chains attached to the common triterpene backbone known as dammarane. The common structure skeleton for each group of ginsenosides is shown in the top panel. Ginsenosides that harbor Aβ42-lowering activity are indicated in the far right column of the tables: Aβ42-lowering activity (“Yes”), no profound effects (“No”), and non-determined (“ND”). Ginsenosides that affected cell viability are indicated as “Cytotoxic.” Abbreviation for carbohydrates are as follows: Glc, D-glucopyranosyl; Ara (pyr), L-arabinopyranosyl; Ara (fur), L-arabinofuranyosyl; Rha, L-rhamnopyranosyl.
Steaming ginseng at high temperature gave rise to additional ginsenosides with enhanced pharmacological activity, including (20S)Rg3, Rk1 and Rg5 (22-25). […] Aβ40 levels were not changed by treatment with any of the ginsenosides tested. The potency of Aβ42-lowering activity was highest with Rk1 and (20S)Rg3. […] These studies provide a structure-activity relationship between the chemical structures of ginsenosides and Aβ42-lowering activity, further providing the basis for designing additional Aβ42-lowering analogues as well as for defining a class of compounds that harbor Aβ42-lowering activity.

[9] = system: full-length APP and APP C-terminal fragments, CHO-APP cells; experiment: Western blot analysis of APP processing in CHO-APP cells; type: cell-based, Chinese hamster; conditions: cell lysates
From the text: (§4) FIG. 13. depicts an analysis of APP processing after Rk1 treatment. Steady-state levels of full-length APP and APP C-terminal fragments (APP-CTFs) were examined by Western blot analysis using anti-R1 antibody. […] Correlated Aβ42 levels for each sample are shown in the bottom panel.

[10] = system: full-length APP and APP C-terminal fragments, Neuro2a-APPsw cells; experiment: Western blot analysis of APP processing in neuro2a cells expressing APPsw; type: cell-based, mouse; conditions: neuro2a cells expressing APPsw
From the text: as §4

## CC(C)=CCCC(C)(O)C1CCC2(C)C1C(O)CC1C3(C)CCC(OC4OC(CO)C(O)C(O)C4OC4OC(CO)C(O)C(O)C4O)C(C)(C)C3CCC12C [(20S)Rg3]
[1]
  preference for Aβ42 vs. Aβ40 in cell-based assay: primarily affect Aβ42 production
  production of Aβ42 in cells: lower the production of Aβ42
[2]
  potency of Aβ42-reducing activity (rank): Rk1>/=(20S)Rg3>Rg5>(20R)Rg3; also recorded: highest
  secretion of Aβ42: selectively lowered the secretion of Aβ42
[3]
  Aβ42-lowering response in PS1 ΔE9 FAD mutant cells compared to PS1 wild-type cells: diminished
[4]; FIG. 15
  Aβ generation in a cell-free γ-secretase assay: inhibits Aβ generation
[4]; cell-free γ-secretase assay, FIG. 15 (100 μM in A)
  Aβ42 generation in vitro: inhibited both Aβ40 and Aβ42 with a similar potency
[4]; cell-free γ-secretase assay, FIG. 15B
  Aβ40 generation in vitro: inhibited both Aβ40 and Aβ42 with a similar potency
[4]; cell-free γ-secretase assay, FIG. 15B, read-out: IC50 for Aβ40
  IC50: 27 ± 4 µM
[4]; cell-free γ-secretase assay, FIG. 15B, read-out: IC50 for Aβ42
  IC50: 26 ± 7 µM
[5]
  Aβ37 (1-37): elevation
  Aβ38 (1-38): elevation
  Aβ42 species (1-42): decrease
[6]
  level of secreted Aβ40: decreased
  level of secreted Aβ42: decreased
[7]
  production of Aβ42 in mammalian cells: lower the production of Aβ42

## CC(C)=CCC[C@](C)(O)[C@H]1CC[C@]2(C)[C@@H]1[C@H](O)C[C@@H]1[C@@]3(C)CC[C@H](O[C@@H]4O[C@H](CO)[C@@H](O)[C@H](O)[C@H]4O)C(C)(C)[C@@H]3CC[C@]12C [Rh2]
[1]
  Aβ42-lowering activity: Yes
[2]
  secretion of Aβ42: exhibited Aβ42-lowering effects
[8]; 50 μM treatment
  cell viability: partially affected
[8]; summary of Tables 1-3
  affected cell viability (Cytotoxic): Cytotoxic

## CC(C)=CC/C=C(\C)[C@H]1CC[C@]2(C)[C@@H]1[C@H](O)C[C@@H]1[C@@]3(C)CC[C@H](O[C@@H]4O[C@H](CO)[C@@H](O)[C@H](O)[C@H]4O[C@@H]4O[C@H](CO)[C@@H](O)[C@H](O)[C@H]4O)C(C)(C)[C@@H]3CC[C@]12C [Rg5]
[1]; 50 μg/ml, 8 hrs, FIG. 4
  generation of Aβ42 (Aβ42 levels in the medium, ELISA, normalized to intracellular full-length APP): reduce the generation of Aβ42
[1]; CHO-APP cells
  Aβ42-lowering effect compared with other agents: much smaller
[1]
  preference for Aβ42 vs. Aβ40 in cell-based assay: preferentially reduced Aβ42 (vs. Aβ40)
  production of Aβ42 in cells: lower the production of Aβ42
  Aβ42-lowering activity: Yes
[1]; dose-dependent, FIG. 5 / FIG. 12A
  Aβ42 in the medium, dose-response: reduced Aβ42; also recorded: lower Aβ42 in a dose-dependent manner
[1]; overnight treatment, FIG. 12B
  Aβ42 production: reduce Aβ42 production
[2]
  potency of Aβ42-reducing activity (rank): Rk1>/=(20S)Rg3>Rg5>(20R)Rg3; also recorded: less effective
  secretion of Aβ42: selectively lowered the secretion of Aβ42
[2]; wild-type or FAD mutant presenilin 1, FIG. 8
  effects on Aβ42 generation compared to Rgk351 and Rk1: much smaller
[3]
  Aβ42-lowering response in PS1 ΔE9 FAD mutant cells compared to PS1 wild-type cells: diminished
[9]
  APP C-terminal fragments (γ-secretase substrates), steady-state levels: increased accumulation
  full-length APP levels: not affected
[10]
  APP C-terminal fragments, steady-state levels: increased accumulation
[7]
  production of Aβ42 in mammalian cells: lower the production of Aβ42
